From US20240383869A1, “ARYLACETYL INHIBITORS OF TG2 AND USES THEREOF” (UNIVERSITY OF OTTAWA, priority 2021, published 2024)
Read-outs that look alike come from different tables or passages of the source.

Target: T1, hTG2 (Homo sapiens, UniProt P21980)
T1 sequence (P21980 1-687): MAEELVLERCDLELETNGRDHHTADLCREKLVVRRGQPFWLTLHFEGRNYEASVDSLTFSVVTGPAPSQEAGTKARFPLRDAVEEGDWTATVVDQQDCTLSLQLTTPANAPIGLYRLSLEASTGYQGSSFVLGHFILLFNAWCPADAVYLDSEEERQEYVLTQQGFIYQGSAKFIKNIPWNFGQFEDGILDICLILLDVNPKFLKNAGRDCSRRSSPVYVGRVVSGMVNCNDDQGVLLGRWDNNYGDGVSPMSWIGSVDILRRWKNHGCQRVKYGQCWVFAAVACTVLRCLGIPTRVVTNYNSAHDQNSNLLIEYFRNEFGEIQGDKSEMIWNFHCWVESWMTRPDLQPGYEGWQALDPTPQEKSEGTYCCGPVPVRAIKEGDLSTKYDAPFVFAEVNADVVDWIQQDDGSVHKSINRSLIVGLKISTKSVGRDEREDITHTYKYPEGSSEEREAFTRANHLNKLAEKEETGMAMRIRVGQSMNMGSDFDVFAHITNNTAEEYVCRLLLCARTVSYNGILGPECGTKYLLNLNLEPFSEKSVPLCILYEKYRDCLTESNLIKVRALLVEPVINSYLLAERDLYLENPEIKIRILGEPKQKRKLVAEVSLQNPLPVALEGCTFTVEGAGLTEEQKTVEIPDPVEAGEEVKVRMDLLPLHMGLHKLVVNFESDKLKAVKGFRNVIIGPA
Experiment: biochemical
Method: The ability of the compounds to inhibit TG2 transamidase activity and the kinetics of TG2 inhibition were investigated using a colorimetric activity assay, as follows:
Colorimetric transamidase activity assay. The activities of hTG1, hTG2 and hTG6 were measured via a colorimetric assay using the chromogenic substrate Cbz-Glu(γ-p-nitrophenyl ester)Gly (AL5), as described (Leblanc, A. et al., “Kinetic studies of guinea pig liver transglutaminase reveal a general-base-catalyzed deacylation mechanism.” Biochemistry 2001, 40 (28), 8335-8342). Assays were conducted at 25° C. in 50 mM MOPS buffer (pH 6.95) containing 7.5 mM CaCl2. […] The substrate AL5 was prepared in as a stock solution in DMSO such that the final concentration of this co-solvent was constant at 2.5% v/v. Stock solutions of the inhibitors were made in water ranging in concentration from 100-500 μM. The reaction was initiated with the addition of enzyme, 0.10 μM hTG1, 0.25 μM hTG2 (4.6 mU/mL) or 0.32 μM hTG6. Formation of hydrolysis product, p-nitrophenolate (pNP), was monitored at 405 nm in a polystyrene 96-well microplate using a BioTek Synergy 4 plate reader. The observed first-order rate constants of inactivation (kobs) were determined via non-linear regression fit to a mono-exponential model (Eqn 1) of absorbance versus time curves. These rate constants (kobs) were in turn fit to a saturation kinetics model (Eqn 2), by non-linear regression, providing the kinetic parameters kinact and KI, as previously described by Stone and Hofsteenge (Stone, S. R. and Hofsteenge, J., “Specificity of activated human protein C.” Biochem. J. 1985, 230 (2), 497-502). […] Experiments were completed in triplicate at minimum.
Fitting of this time-dependent inactivation to a monoexponential equation gave first-order rate constants, kobs. […] In some cases, the kinetic data were fitted to a linear double reciprocal equation.

[1] = fit to saturation kinetics model, 25° C., pH 6.95, 100 μM AL5, read-out: KI (converted)
[2] = fit to saturation kinetics model, 25° C., pH 6.95, 100 μM AL5, read-out: kinact (converted)
[3] = fit to saturation kinetics model, 25° C., pH 6.95, 100 μM AL5, read-out: kinact/KI (converted)
[4] = values determined using a double-reciprocal analysis, read-out: KI (converted)
[5] = values determined using a double-reciprocal analysis, read-out: kinact (converted)
[6] = values determined using a double-reciprocal analysis, read-out: kinact/KI (converted)

| SMILES | Ki [1] [µM] | kinact [2] [s⁻¹] | kinact/KI [3] [M⁻¹ s⁻¹] | other results |
| --- | --- | --- | --- | --- |
| C=CC(=O)NCCCC[C@H](NC(=O)c1cccc2ccccc12)C(=O)N1CCN(C(=O)c2cccc3ccccc23)CC1 [Inhibitor 66, (S)-N-(1-(4-(1-naphthoyl)piperazin-1-yl)-6-acrylamido-1-oxohexan-2-yl)-1-naphthamide] | 20.3 ± 5.1 | – | – | Ki: 9.3 µM; kinact: 0.00433 s⁻¹; kinact/KI: 458 M⁻¹ s⁻¹; kinact/KI (pH 6.95): 335 M⁻¹ s⁻¹ |
| C=CC(=O)NCCCC[C@H](NC(=O)Cc1ccc(F)cc1F)C(=O)N1CCN(C(=O)c2cccc3ccccc23)CC1 [Inhibitor 80, (S)-N-(6-(4-(1-naphthoyl)piperazin-1-yl)-5-(2-(2,4-difluorophenyl)acetamido)-6-oxohexyl)acrylamide] | 2.8 ± 0.9 | 0.0103 | 3730 | – |
| C=CC(=O)NCCCC[C@H](NC(=O)CCc1ccccc1)C(=O)N1CCN(C(=O)c2cccc3ccccc23)CC1 [Inhibitor 68, (S)-N-(6-(4-(1-naphthoyl)piperazin-1-yl)-6-oxo-5-(3-phenylpropanamido)hexyl)acrylamide] | 2.8 ± 0.3 | 0.01 | 3570 | – |
| C=CC(=O)NCCCC[C@H](NC(=O)Cc1ccccc1C(F)(F)F)C(=O)N1CCN(C(=O)c2cccc3ccccc23)CC1 [Inhibitor 81, (S)-N-(6-(4-(1-naphthoyl)piperazin-1-yl)-5-(2-(2-trifluoromethylphenyl)acetamido)-6-oxohexyl)acrylamide] | 10.1 ± 3.1 | 0.0167 | 1670 | – |
| C=CC(=O)NCCCC[C@H](NC(=O)Cc1cccc(Cl)c1)C(=O)N1CCN(C(=O)c2cccc3ccccc23)CC1 [Inhibitor 73, (S)-N-(6-(4-(1-naphthoyl)piperazin-1-yl)-5-(2-(3-chlorophenyl)acetamido)-6-oxohexyl)acrylamide] | 1 ± 0.5 | 0.005 | 4830 | – |
| C=CC(=O)NCCCC[C@H](NS(=O)(=O)Cc1ccccc1)C(=O)N1CCN(C(=O)c2cccc3ccccc23)CC1 [Inhibitor 88] | 46.7 ± 10.2 | 0.00883 | 190 | – |
| C=CC(=O)NCCCC[C@H](NC(=O)CC1CCCCC1)C(=O)N1CCN(C(=O)c2cccc3ccccc23)CC1 [Inhibitor 34, (S)-N-(6-(4-(1-naphthoyl)piperazin-1-yl)-5-(2-cyclohexylacetamido)-6-oxohexyl)acrylamide] | 12.2 ± 2.4 | 0.00433 | 348 | – |
| C=CC(=O)NCCCC[C@H](NC(=O)c1ccccn1)C(=O)N1CCN(C(=O)c2cccc3ccccc23)CC1 [Inhibitor 18, (S)-N-(1-(4-(1-Naphthoyl)piperazin-1-yl)-6-acrylamido-1-oxohexan-2-yl)picolinamide] | – | – | – | Ki [4]: 41.4 ± 3.8 µM; kinact [5]: 0.0065 s⁻¹; kinact/KI [6]: 160 M⁻¹ s⁻¹ |
| C=CC(=O)NCCCC[C@H](NC(=O)CC)C(=O)N1CCN(C(=O)c2cccc3ccccc23)CC1 [Inhibitor 40, (S)-N-(6-(4-(1-naphthoyl)piperazin-1-yl)-6-oxo-5-propionamidohexyl)acrylamide] | 5.1 ± 1 | 0.00883 | 1720 | – |
| C=CC(=O)NCCCC[C@H](NC(=O)c1nccn1C)C(=O)N1CCN(C(=O)c2cccc3ccccc23)CC1 [Inhibitor 21, (S)-N-(1-(4-(1-naphthoyl)piperazin-1-yl)-6-acrylamido-1-oxohexan-2-yl)-1-methyl-1H-imidazole-2-carboxamide] | 15.7 ± 4.5 | 0.003 | 192 | – |
| C=CC(=O)NCCCC[C@H](NC(=O)C1CCCCC1)C(=O)N1CCN(C(=O)c2cccc3ccccc23)CC1 [Inhibitor 35, (S)-N-(1-(4-(1-naphthoyl)piperazin-1-yl)-6-acrylamido-1-oxohexan-2-yl)cyclohexanecarboxamide] | 9.9 ± 1.3 | 0.0055 | 560 | – |
| C=CC(=O)NCCCC[C@H](NC(=O)Cc1ccc(Cl)c(Cl)c1)C(=O)N1CCN(C(=O)c2cccc3ccccc23)CC1 [Inhibitor 79, (S)-N-(6-(4-(1-naphthoyl)piperazin-1-yl)-5-(2-(3,4-dichlorophenyl)acetamido)-6-oxohexyl)acrylamide] | 0.58 ± 0.3 | 0.00133 | 2180 | – |
| C=CC(=O)NCCCC[C@H](NC(=O)C1C2CC3CC(C2)CC1C3)C(=O)N1CCN(C(=O)c2cccc3ccccc23)CC1 (stereo partly drawn) [Inhibitor 33, (1S,3S,5S,7S)-N-((S)-1-(4-(1-naphthoyl)piperazin-1-yl)-6-acrylamido-1-oxohexan-2-yl)adamantane-2-carboxamide] | 15.3 ± 0.3 | 0.00383 | 248 | – |
| C=CC(=O)NCCCC[C@H](NC(=O)CC(C)C)C(=O)N1CCN(C(=O)c2cccc3ccccc23)CC1 [Inhibitor 38, (S)-N-(1-(4-(1-naphthoyl)piperazin-1-yl)-6-acrylamido-1-oxohexan-2-yl)-3-methylbutanamide] | 9.7 ± 1.9 | 0.0107 | 1110 | – |
| C=CC(=O)NCCCC[C@H](NC(=O)Cc1cccc(F)c1)C(=O)N1CCN(C(=O)c2cccc3ccccc23)CC1 [Inhibitor 71, (S)-N-(6-(4-(1-naphthoyl)piperazin-1-yl)-5-(2-(3-fluorophenyl)acetamido)-6-oxohexyl)acrylamide] | 4.9 ± 0.5 | 0.0125 | 2580 | – |
| C=CC(=O)NCCCC[C@H](NC(=O)c1ccccc1F)C(=O)N1CCN(C(=O)c2cccc3ccccc23)CC1 [Inhibitor 62, (S)-N-(1-(4-(1-naphthoyl)piperazin-1-yl)-6-acrylamido-1-oxohexan-2-yl)-2-fluorobenzamide] | 10 ± 2.6 | 0.0065 | 657 | – |
| C=CC(=O)NCCCC[C@H](NC(C)=O)C(=O)N1CCN(C(=O)c2cccc3ccccc23)CC1 [Inhibitor 41, (S)-N-(6-(4-(1-naphthoyl)piperazin-1-yl)-5-acetamido-6-oxohexyl)acrylamide] | – | – | – | kinact: 0.0242 s⁻¹; kinact/KI: 735 M⁻¹ s⁻¹; Ki [4]: 33 ± 14.5 µM |
| C=CC(=O)NCCCC[C@H](NC(=O)Cc1ccc(F)cc1)C(=O)N1CCN(C(=O)c2cccc3ccccc23)CC1 [Inhibitor 70, (S)-N-(6-(4-(1-naphthoyl)piperazin-1-yl)-5-(2-(4-fluorophenyl)acetamido)-6-oxohexyl)acrylamide] | 4.2 ± 0.9 | 0.00817 | 1980 | – |
| C=CC(=O)NCCCC[C@H](NC(=O)c1cccc(F)c1)C(=O)N1CCN(C(=O)c2cccc3ccccc23)CC1 [Inhibitor 63, (S)-N-(1-(4-(1-naphthoyl)piperazin-1-yl)-6-acrylamido-1-oxohexan-2-yl)-3-fluorobenzamide] | 13.4 ± 3.5 | 0.0107 | 797 | Ki [4]: 9.9 µM; kinact [5]: 0.0085 s⁻¹; kinact/KI [6]: 860 M⁻¹ s⁻¹ |
| C=CC(=O)NCCCC[C@H](NC(=O)C(C)C)C(=O)N1CCN(C(=O)c2cccc3ccccc23)CC1 [Inhibitor 39, (S)-N-(6-(4-(1-naphthoyl)piperazin-1-yl)-5-isobutyramido-6-oxohexyl)acrylamide] | 9.9 ± 1.4 | 0.0108 | 1080 | – |
| C=CC(=O)NCCCC[C@H](NS(=O)(=O)c1ccccc1)C(=O)N1CCN(C(=O)c2cccc3ccccc23)CC1 [Inhibitor 89, (S)-N-(6-(4-(1-naphthoyl)piperazin-1-yl)-6-oxo-5-(phenylsulfonamido)hexyl)acrylamide] | – | – | – | Ki [4]: 88.8 ± 6.7 µM; kinact [5]: 0.0105 s⁻¹; kinact/KI [6]: 118 M⁻¹ s⁻¹ |
